Results reported in patent publication US20220162182A1, “KINASE INHIBITOR COMPOUNDS AND COMPOSITIONS AND METHODS OF USE” (ICAHN SCHOOL OF MEDICINE AT MOUNT SINAI, priority 2018, published 2022).
Values joined by “and” are separate entries in the source; they are usually repeats but may differ in a detail not shown here. Equal entries are not always repeated. Structures can show the parent of a compound that is named as a salt.

The compounds below were run against T1, DYRK1A (Homo sapiens, UniProt Q13627) (assay: KINOMEscan DYRK1A binding assay (DiscoverX), Kd determination). Settings: eleven serial three fold dilutions, highest concentration 60 μM, several values in a cell = repeat determinations.
T1 construct: purchased DiscoverX
Description: Compounds were tested for DYRK1A binding activity at DiscoverX. DiscoverX uses proprietary KINOMEscan® Assay (Fabian et al., “A Small Molecule-kinase Interaction Map for Clinical Kinase Inhibitors,” Nat. Biotechnol. 23(3):329-336 (2005), which is hereby incorporated by reference in its entirety). Compounds were screened for DYRK1A activity at a single concentration of 3 μM in duplicates. Similarly, the dissociation constant Kd of the hit compounds from the initial screening was determined at DiscoverX using their proprietary KINOMEscan® Assay. Kd values are determined using eleven serial three fold dilutions with the highest concentration of 60 μM.

SMILES | Kd
O=C1Cc2cc(-c3cncc(NCc4ccccc4)c3)ccc2N1 [Compound 13e, 5-(5-(Benzylamino)pyridin-3-yl)indolin-2-one] | 1.3 nM and 1.9 nM
O=c1[nH]c2ccc(-c3cncc(NCc4ccccn4)c3)cc2[nH]1 [Compound 31a, 5-(5-((Pyridin-2-ylmethyl)amino)pyridin-3-yl)-1H-benzo[d]imidazol-2(3H)-one] | 1.2 nM
Cc1ncc(-c2ccc3[nH]c(=O)[nH]c3c2)cc1NCc1ccccc1 [Compound 13c, 5-(5-(Benzylamino)-6-methylpyridin-3-yl)-1H-benzo[d]imidazol-2(3H)-one] | 140 nM
O=c1[nH]c2ccc(-c3cncc(NCc4cccnc4)c3)cc2[nH]1 [Compound 31b, 5-(5-((Pyridin-3-ylmethyl)amino)pyridin-3-yl)-1H-benzo[d]imidazol-2(3H)-one] | 2.1 nM
CC(Nc1cncc(-c2ccc3[nH]c(=O)n(C)c3c2)c1)c1ccccc1 (stereo not drawn) [Compound 30n, 1-Methyl-6-(5-((1-phenylethyl)amino)pyridin-3-yl)-1H-benzo[d]imidazol-2(3H)-one] | 0.81 nM
N[C@@H](Cc1ccccc1)c1cncc(-c2ccc3[nH]c(=O)[nH]c3c2)c1 [Compound 65b, (S)-5-(5-(1-Amino-2-phenylethyl)pyridin-3-yl)-1H-benzo[d]imidazol-2(3H)-one] | 15 nM
O=c1[nH]c2ccc(-c3cncc(NCc4ccccc4Cl)c3)cc2[nH]1 [Compound 30c, 5-(5-((2-Chlorobenzyl)amino)pyridin-3-yl)-1H-benzo[d]imidazol-2(3H)-one] | 1.3 nM
C[C@H](Nc1cncc(-c2ccc3[nH]c(=O)[nH]c3c2)c1)c1ccccc1 [Compound 68b, (S)-5-(5-((1-Phenylethyl)amino)pyridin-3-yl)-1H-benzo[d]imidazol-2(3H)-one] | 7.5 nM
O=c1[nH]c2ccc(-c3ccc(NCc4ccccc4)nc3)cc2[nH]1 [Compound 11a, 5-(6-(Benzylamino)pyridin-3-yl)-1H-benzo[d]imidazol-2(3H)-one] | 300 nM
O=c1[nH]c2ccc(-c3cncc(NCc4ccccc4)c3)cc2[nH]1 [Compound 13a, 5-(5-(Benzylamino)pyridin-3-yl)-1H-benzo[d]imidazol-2(3H)-one] | 2.3 nM and 2.9 nM and 1.1 nM
O=c1[nH]c2ccc(-c3cncc(NCc4ccncc4)c3)cc2[nH]1 [Compound 31c, 5-(5-((Pyridin-4-ylmethyl)amino)pyridin-3-yl)-1H-benzo[d]imidazol-2(3H)-one] | 3.9 nM
O=c1[nH]c2ccc(-c3cncc(NCc4ccc(Cl)cc4)c3)cc2[nH]1 [Compound 30e, 5-(5-((4-Chlorobenzyl)amino)pyridin-3-yl)-1H-benzo[d]imidazol-2(3H)-one] | 23 nM
O=c1[nH]c2ccc(-c3cncc(NCCc4ccccc4)c3)cc2[nH]1 [Compound 30k, 5-(5-(Phenethylamino)pyridin-3-yl)-1H-benzo[d]imidazol-2(3H)-one] | 4.3 nM
O=c1[nH]c2ccc(-c3cncc(NCc4cccc(F)c4)c3)cc2[nH]1 [Compound 30b, 5-(5-((3-Fluorobenzyl)amino)pyridin-3-yl)-1H-benzo[d]imidazol-2(3H)-one] | 1.2 nM
O=c1[nH]c2ccc(-c3cncc(NCc4ccccc4F)c3)cc2[nH]1 [Compound 30a, 5-(5-((2-Fluorobenzyl)amino)pyridin-3-yl)-1H-benzo[d]imidazol-2(3H)-one] | 1.2 nM
N#Cc1cccc(CNc2cncc(-c3ccc4[nH]c(=O)[nH]c4c3)c2)c1 [Compound 30f, 3-(((5-(2-Oxo-2,3-dihydro-1H-benzo[d]imidazol-5-yl)pyridin-3-yl)amino)methyl)benzonitrile] | 5.8 nM
C[C@@H](Nc1cncc(-c2ccc3[nH]c(=O)[nH]c3c2)c1)c1ccccc1 [Compound 68a, (R)-5-(5-((1-Phenylethyl)amino)pyridin-3-yl)-1H-benzo[d]imidazol-2(3H)-one] | 0.59 nM

SMILES | Kd
Cn1c(=O)[nH]c2ccc(-c3cncc(NCc4ccccc4Cl)c3)cc21 [Compound 30r, 6-(5-((2-Chlorobenzyl)amino)pyridin-3-yl)-1-methyl-1H-benzo[d]imidazol-2(3H)-one] | 1.3 nM
O=c1[nH]c2ccc(-c3cncc(NCc4ccc(F)cc4)c3)cc2[nH]1 [Compound 13b, 5-(5-((4-Fluorobenzyl)amino)pyridin-3-yl)-1H-benzo[d]imidazol-2(3H)-one] | 2.9 nM and 1.8 nM
Cn1c(=O)[nH]c2ccc(-c3cncc(NCc4ccccc4F)c3)cc21 [Compound 30q, 6-(5-((2-Fluorobenzyl)amino)pyridin-3-yl)-1-methyl-1H-benzo[d]imidazol-2(3H)-one] | 0.86 nM
Cn1c(=O)[nH]c2ccc(-c3cncc(NCc4ccccc4)c3)cc21 [Compound 12b, 6-(5-(Benzylamino)pyridin-3-yl)-1-methyl-1H-benzo[d]imidazol-2(3H)-one] | 0.82 nM and 1.6 nM
O=c1[nH]c2ccc(-c3ccc(NCc4ccc(F)cc4)cn3)cc2[nH]1 [Compound 11c, 5-(5-((4-Fluorobenzyl)amino)pyridin-2-yl)-1H-benzo[d]imidazol-2(3H)-one] | 6000 nM
CC(Nc1cncc(-c2ccc3[nH]c(=O)[nH]c3c2)c1)c1ccccc1 (stereo not drawn) [Compound 30j, 5-(5-((1-Phenylethyl)amino)pyridin-3-yl)-1H-benzo[d]imidazol-2(3H)-one] | 0.71 nM and 1.1 nM
O=c1[nH]c2ccc(-c3cncc(NCCCc4ccccc4)c3)cc2[nH]1 [Compound 30p, 5-(5-((3-Phenylpropyl)amino)pyridin-3-yl)-1H-benzo[d]imidazol-2(3H)-one] | 15 nM
NC(=O)c1ccc(CNc2cncc(-c3ccc4[nH]c(=O)[nH]c4c3)c2)cc1 [Compound 33b, 4-(((5-(2-Oxo-2,3-dihydro-1H-benzo[d]imidazol-5-yl)pyridin-3-yl)amino)methyl)benzamide] | 14 nM
Cc1ncc(-c2ccc3[nH]c(=O)[nH]c3c2)cc1NCc1ccc(F)cc1 [Compound 13d, 5-(5-((4-Fluorobenzyl)amino)-6-methylpyridin-3-yl)-1H-benzo[d]imidazol-2(3H)-one] | 240 nM
O=c1[nH]c2ccc(-c3cncc(NCc4cccc5ccccc45)c3)cc2[nH]1 [Compound 31d, 5-(5-((Naphthalen-1-ylmethyl)amino)pyridin-3-yl)-1H-benzo[d]imidazol-2(3H)-one] | 28 nM
N[C@H](Cc1ccccc1)c1cncc(-c2ccc3[nH]c(=O)[nH]c3c2)c1 [Compound 65a, (R)-5-(5-(1-Amino-2-phenylethyl)pyridin-3-yl)-1H-benzo[d]imidazol-2(3H)-one] | 3.2 nM
O=c1[nH]c2ccc(-c3cncc(NCc4ccc(-c5ccccc5)cc4)c3)cc2[nH]1 [Compound 30h, 5-(5-(([1,1′-Biphenyl]-4-ylmethyl)amino)pyridin-3-yl)-1H-benzo[d]imidazol-2(3H)-one] | 1200 nM
O=c1[nH]c2ccc(-c3cncc(NCc4ccc5ccccc5c4)c3)cc2[nH]1 [Compound 31e, 5-(5-((Naphthalen-2-ylmethyl)amino)pyridin-3-yl)-1H-benzo[d]imidazol-2(3H)-one] | 100 nM
Cn1c(=O)[nH]c2cc(-c3cncc(NCc4ccccc4)c3)ccc21 [Compound 12c, 5-(5-(Benzylamino)pyridin-3-yl)-1-methyl-1H-benzo[d]imidazol-2(3H)-one] | 2000 nM
N#Cc1ccc(CNc2cncc(-c3ccc4[nH]c(=O)[nH]c4c3)c2)cc1 [Compound 30g, 4-(((5-(2-Oxo-2,3-dihydro-1H-benzo[d]imidazol-5-yl)pyridin-3-yl)amino)methyl)benzonitrile] | 31 nM
NC(=O)c1cccc(CNc2cncc(-c3ccc4[nH]c(=O)[nH]c4c3)c2)c1 [Compound 33a, 3-(((5-(2-Oxo-2,3-dihydro-1H-benzo[d]imidazol-5-yl)pyridin-3-yl)amino)methyl)benzamide] | 9.9 nM
O=c1[nH]c2ccc(-c3ccc(NCc4ccc(F)cc4)nc3)cc2[nH]1 [Compound 11b, 5-(6-((4-Fluorobenzyl)amino)pyridin-3-yl)-1H-benzo[d]imidazol-2(3H)-one] | 580 nM and 510 nM

The compounds below were run against T2, DYRK1/DYRK1A (Homo sapiens, UniProt Q13627) (assay: DYRK1/DYRK1A IC50 assay (Reaction Biology Corp.)). Settings: DYRK1/DYRK1A assay from Reaction Biology Corp.
T2 construct: purchased Reaction Biology Corp
Assay type: biochemical

SMILES | IC50 [nM]
N[C@@H](Cc1ccccc1)c1cncc(-c2ccc3[nH]c(=O)[nH]c3c2)c1 [Compound 65b, (S)-5-(5-(1-Amino-2-phenylethyl)pyridin-3-yl)-1H-benzo[d]imidazol-2(3H)-one] | 23.2
C[C@H](Nc1cncc(-c2ccc3[nH]c(=O)[nH]c3c2)c1)c1ccccc1 [Compound 68b, (S)-5-(5-((1-Phenylethyl)amino)pyridin-3-yl)-1H-benzo[d]imidazol-2(3H)-one] | 2.18
C[C@@H](Nc1cncc(-c2ccc3[nH]c(=O)[nH]c3c2)c1)c1ccccc1 [Compound 68a, (R)-5-(5-((1-Phenylethyl)amino)pyridin-3-yl)-1H-benzo[d]imidazol-2(3H)-one] | 0.21
Cn1c(=O)[nH]c2ccc(-c3cncc(NCc4ccccc4Cl)c3)cc21 [Compound 30r, 6-(5-((2-Chlorobenzyl)amino)pyridin-3-yl)-1-methyl-1H-benzo[d]imidazol-2(3H)-one] | 0.1
Cn1c(=O)[nH]c2ccc(-c3cncc(NCc4ccccc4F)c3)cc21 [Compound 30q, 6-(5-((2-Fluorobenzyl)amino)pyridin-3-yl)-1-methyl-1H-benzo[d]imidazol-2(3H)-one] | 0.3
O=c1[nH]c2ccc(-c3cncc(NCCCc4ccccc4)c3)cc2[nH]1 [Compound 30p, 5-(5-((3-Phenylpropyl)amino)pyridin-3-yl)-1H-benzo[d]imidazol-2(3H)-one] | 1.83
N[C@H](Cc1ccccc1)c1cncc(-c2ccc3[nH]c(=O)[nH]c3c2)c1 [Compound 65a, (R)-5-(5-(1-Amino-2-phenylethyl)pyridin-3-yl)-1H-benzo[d]imidazol-2(3H)-one] | 3.98
NCCOCCOc1cccc(-n2c(=O)[nH]c3ccc(-c4cncc(NCc5ccccc5)c4)cc32)c1 [Compound 61o, 1-(3-(2-(2-Aminoethoxy)ethoxy)phenyl)-6-(5-(benzylamino)pyridin-3-yl)-1H-benzo[d]imidazol-2(3H)-one hydrochloride] | 3.9
